According to paper PMC11302729, “Repurposing Hsp90 inhibitors as antimicrobials targeting two-component systems identifies compounds leading to loss of bacterial membrane integrity” (Microbiology Spectrum, 2024):
≈ marks a conversion by molar mass, not a printed value. Where “and” joins values, the source holds several entries; their conditions need not be identical. Equal values may be shown once. Read-outs that look alike come from different tables or passages of the source.

Columns and labels:
Format in all cases: cell-based
[1] = tested on: Enterococcus faecalis vanA (strain E0155); experiment: MIC (microdilution) against E. faecalis; conditions: for MIC: Enterococcus faecalis, read-out: MIC E. faecalis; for MIC E. faecalis: Table ST1
Method: (§1) Staphylococcus aureus str. Newman, Enterococcus faecalis vanA (strain E0155), Enterococcus faecium vanA (strain E1654), Escherichia coli ATCC 25922, Escherichia coli D21f2 with a truncated LPS barrier, Escherichia coli JW5503 (ΔtolC) ([49]), Pseudomonas aeruginosa ATCC 27853, and Pasteurella haemolytica ATCC 29701 were grown in Mueller-Hinton Broth (MHB) (Oxoid, Basingstoke, UK) and incubated at 37°C.
(§2) The minimal inhibitory concentration was determined using the microdilution method following the guidelines of the European Committee on Antimicrobial Susceptibility Testing ([50]). Briefly, a series of twofold dilutions in MHB of each compound were made in a 96-well plate, with final concentrations ranging from 50 to 0.39 µg/mL in 100 µL final volume per well. A hundred microliters of 1:100 dilution of an overnight culture of the correspondent bacteria in MHB was added to each well. Plates were incubated for 18 hours at 37°C. MIC was recorded as the lowest concentration where no growth was detected as measured by optical density at 600 nm (OD600) using Spectramax M5 (Molecular Devices LLC, San Jose, CA, USA). […] Wells containing bacteria with or without 1% DMSO and medium alone were included as controls in every plate.

[2] = tested on: Pseudomonas aeruginosa ATCC 27853; experiment: MIC (microdilution) against P. aeruginosa; conditions: for MIC: Pseudomonas aeruginosa; for MIC P. aeruginosa: Table ST1
Method: as §1, §2

[3] = tested on: Staphylococcus aureus str. Newman; experiment: Minimal inhibitory concentration (microdilution) against S. aureus; conditions: for MIC S. aureus: Table ST3
Method: as §1, §2

[4] = in vitro; conditions: human
Method: (§3) HEK293 cells and the human hepatocellular carcinoma cells (HepG2) were routinely cultured in 75-cm^2 culture flasks (Corning Incorporated) on high-glucose Dulbecco’s modified Eagle medium (DMEM) containing glutaMax and phenol red (Gibco) supplemented with 1% penicillin/streptomycin (Gibco) and 10% fetal bovine serum (FBS) (Gibco). Cells were maintained at 37°C and 5% CO2.
(§4) Cytotoxicity assays with HEK293 and HepG2 cells were performed in 96-well plates seeded with 5 × 10^4 cells/well and incubated for 24 hours to reach 80%–90% confluency. Exterior wells were filled with only medium to prevent evaporation. Culture medium was removed from the cells, and 100 µL of exposure medium [high-glucose DMEM without phenol red (Gibco)] was added to avoid a potential interaction between FBS components or antibiotics and tested compounds. A twofold dilution series of compounds in exposure medium (range 100–3.2 μg/mL) was made in a separate 96-well plate, and 100 µL of each of these dilutions was added to the assay plates for 24 hours at 37°C in the presence of 5% CO2. Control wells contained cells with DMEM, DMEM + 1% DMSO (vehicle control), or DMEM + 20% DMSO. Wells without cells were also included as negative control. After exposure, the medium was replaced with 100 µL 10% Alamar Blue (Invitrogen) in exposure medium. After 45 min incubation at 37°C and 5% CO2, fluorescence was measured on a Spectramax M5 plate reader at λex = 541 nm, λem = 590 nm. Cell viability compared with the vehicle control was calculated, and inhibition curves for each compound were fitted (non-linear curve fit, four variables, bottom constrained = 0) in Prism 9 (GraphPad Software, San Diego, USA).

[5] = tested on: HEK293 cells; experiment: in vitro; conditions: for Selectivity Index: LC50/MIC (HEK293 / S. aureus); for LC20: human, 24 h
Method: as §3, §4

[6] = tested on: Pasteurella haemolytica ATCC 29701; experiment: MIC (microdilution) against P. haemolytica; conditions: for MIC: Mannheimia haemolytica
Method: as §1, §2

[7] = ATCC27853, Table 1, read-out: MIC P. aeruginosa
[8] = Staphylococcus aureus, NEWMAN, Fig 2
[9] = Staphylococcus aureus, NEWMAN, Fig 2, value in parentheses
[10] = Table ST3, value in parentheses
[11] = ATCC29701, read-out: MIC P. haemolytica, Table 1
[12] = ATCC29701, read-out: MIC P. haemolytica, Table ST1
[13] = ATCC27853, read-out: MIC P. aeruginosa

Compound | MIC [1] | MIC E. faecalis [1] | MIC [2, 7] | MIC P. aeruginosa [2] | MIC [3, 8] | MIC [3, 9] | MIC S. aureus [3] | MIC [3, 10] | CC50 at 24 h [4] | Selectivity Index [5] | MIC [6, 11] | MIC [6, 12] | MIC [2, 13] | LC20 [5] | MIC ([6]; ATCC29701, Table 1, read-out: MIC P. haemolytica) | MIC P. haemolytica ([6]; Table ST1)
COc1ccc(-c2[nH]nc(C(F)(F)F)c2-c2ccccc2)c(O)c1 [DPP-2] | 25 mg/L (≈ 74.8 µM) | 25 mg/L (≈ 74.8 µM) | > 250 mg/L | >250 mg/L | 12.5 mg/L | 37.3 µM | 12.50 mg/L (≈ 37.4 µM) | 37.3 µM | 7.34 µg/mL and 21.9 µM | 0.60 | 50 mg/L (≈ 150 µM) | 50 mg/L (≈ 150 µM) |  |  |  | 
COc1ccc(-c2c(C(F)(F)F)n[nH]c2-c2ccc(O)cc2O)cc1 [DPP-12] | 50 mg/L (≈ 143 µM) | 50 mg/L (≈ 143 µM) |  | >250 mg/L | 12.5 mg/L | 35.7 µM | 12.50 mg/L (≈ 35.7 µM) | 35.71 µM | 31.7 µg/mL and 90.7 µM | 2.54 | 50 mg/L (≈ 143 µM) | 62.5 mg/L (≈ 178 µM) | > 250 mg/L |  |  | 
Oc1ccc(-c2n[nH]c(C(F)(F)F)c2-c2ccc(Cl)cc2)c(O)c1 [DPP-5] | 12.5 mg/L (≈ 35.2 µM) | 12.5 mg/L (≈ 35.2 µM) | > 250 mg/L | >250 mg/L | 3.12 mg/L | 8.79 µM | 3.12 mg/L (≈ 8.8 µM) | 8.79 µM | 12.9 µg/mL and 36.3 µM | 4.13 |  |  |  | 5 mg/L (≈ 14.1 µM) | 12.5 mg/L (≈ 35.2 µM) | 12.5 mg/L (≈ 35.2 µM)
CCOc1ccc(-c2[nH]nc(C(F)(F)F)c2-c2ccc(Cl)cc2)c(O)c1 [DPP-7] | 3.12 mg/L (≈ 8.15 µM) | 3.12 mg/L (≈ 8.15 µM) | > 250 mg/L | >250 mg/L | 3.12 mg/L | 8.21 µM | 3.12 mg/L (≈ 8.15 µM) | 8.21 µM | 10.8 µg/mL and 28.5 µM | 3.47 | 25 mg/L (≈ 65.3 µM) | 25 mg/L (≈ 65.3 µM) |  |  |  | 
COc1ccc(-c2c(C(F)(F)F)n[nH]c2-c2ccc(OC)cc2O)cc1 [DPP-13] | 25 mg/L (≈ 68.6 µM) | 25 mg/L (≈ 68.6 µM) |  | >250 mg/L | 12.5 mg/L | 34.3 µM | 12.50 mg/L (≈ 34.3 µM) | 34.34 µM | 29.9 µg/mL and 82.1 µM | 2.39 | > 250 mg/L | > 250 mg/L | > 250 mg/L |  |  | 
COc1ccc(-c2[nH]nc(C(F)(F)F)c2-c2ccc(Cl)cc2)c(O)c1 [DPP-6] | 6.25 mg/L (≈ 16.9 µM) | 6.25 mg/L (≈ 16.9 µM) | > 250 mg/L | >250 mg/L | 3.12 mg/L | 8.43 µM | 3.12 mg/L (≈ 8.46 µM) | 8.43 µM | 14.3 µg/mL and 38.6 µM | 4.58 | 12.5 mg/L (≈ 33.9 µM) | 12.5 mg/L (≈ 33.9 µM) |  | 6 mg/L (≈ 16.3 µM) |  | 
